Laboratory results published in PubChem BioAssay (NCI).
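GI50 is the concentration that inhibits growth by half. The concentration for full growth arrest is given as TGI.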

Columns and labels:
Experiment in all cases: NCI tumour cell line growth inhibition, 384-well format
A498 renal = test system: A498 renal
SNB-19 CNS = test system: SNB-19 CNS
SK-MEL-2 melanoma = test system: SK-MEL-2 melanoma
K-562 leukemia = test system: K-562 leukemia
BT-549 breast = test system: BT-549 breast
TK-10 renal = test system: TK-10 renal
OVCAR-4 ovarian = test system: OVCAR-4 ovarian
ACHN renal = test system: ACHN renal
SK-MEL-5 melanoma = test system: SK-MEL-5 melanoma
T-47D breast = test system: T-47D breast
UACC-62 melanoma = test system: UACC-62 melanoma
COLO 205 colon = test system: COLO 205 colon
OVCAR-8 ovarian = test system: OVCAR-8 ovarian
MDA-MB-435 melanoma = test system: MDA-MB-435 melanoma
NCI-H522 lung = test system: NCI-H522 lung
NCI-H23 lung = test system: NCI-H23 lung
RPMI-8226 leukemia = test system: RPMI-8226 leukemia
SF-295 CNS = test system: SF-295 CNS
MDA-MB-468 breast = test system: MDA-MB-468 breast
MDA-MB-231 breast = test system: MDA-MB-231 breast
SK-MEL-28 melanoma = test system: SK-MEL-28 melanoma
HOP-62 NSCLC = test system: HOP-62 NSCLC
OVCAR-3 ovarian = test system: OVCAR-3 ovarian
SF-268 CNS = test system: SF-268 CNS
CCRF-CEM leukemia = test system: CCRF-CEM leukemia
M14 melanoma = test system: M14 melanoma
SR leukemia = test system: SR leukemia
HCT-15 colon = test system: HCT-15 colon
UO-31 renal = test system: UO-31 renal
IGROV1 ovarian = test system: IGROV1 ovarian
SK-OV-3 ovarian = test system: SK-OV-3 ovarian
HCC-2998 colon = test system: HCC-2998 colon
HT29 colon = test system: HT29 colon
A549 NSCLC = test system: A549 NSCLC
MOLT-4 leukemia = test system: MOLT-4 leukemia
SW-620 colon = test system: SW-620 colon
SN12C renal = test system: SN12C renal
RXF 393 renal = test system: RXF 393 renal
CAKI-1 renal = test system: CAKI-1 renal
MALME-3M melanoma = test system: MALME-3M melanoma
UACC-257 melanoma = test system: UACC-257 melanoma
KM12 colon = test system: KM12 colon
HL-60(TB) leukemia = test system: HL-60(TB) leukemia
OVCAR-5 ovarian = test system: OVCAR-5 ovarian
NCI/ADR-RES ovarian = test system: NCI/ADR-RES ovarian
SF-539 CNS = test system: SF-539 CNS
786-0 renal = test system: 786-0 renal
PC-3 prostate = test system: PC-3 prostate
NCI-H226 lung = test system: NCI-H226 lung
LOX IMVI melanoma = test system: LOX IMVI melanoma
U251 glioblastoma = test system: U251 glioblastoma
NCI-H460 NSCLC = test system: NCI-H460 NSCLC
HOP-92 NSCLC = test system: HOP-92 NSCLC
NCI-H322M lung = test system: NCI-H322M lung

`CN(C)C/C=C/C(=O)Nc1ccc(C(=O)N[C@@]2(C)CCC[C@@H](Nc3ncc(Cl)c(-c4c[nH]c5ccccc45)n3)C2)nc1` showed a GI50 (A498 renal) of less than 10 nM, a TGI (A498 renal) of 15.2 nM and a GI50 (SNB-19 CNS) of less than 10 nM. The TGI (SNB-19 CNS) was 1340 nM, the GI50 (SK-MEL-2 melanoma) was less than 10 nM and the TGI (SK-MEL-2 melanoma) was 10.9 nM. For the same compound, the GI50 (K-562 leukemia) was less than 10 nM, the TGI (K-562 leukemia) was 43.5 nM and the GI50 (BT-549 breast) was less than 10 nM. For the same compound, the TGI (BT-549 breast) was less than 10 nM, the GI50 (TK-10 renal) was 16.7 nM and the TGI (TK-10 renal) was 101 nM. For the same compound, the GI50 (OVCAR-4 ovarian) was less than 10 nM, the TGI (OVCAR-4 ovarian) was 35.9 nM and the GI50 (ACHN renal) was less than 10 nM. For the same compound, the TGI (ACHN renal) was 88.6 nM, the GI50 (SK-MEL-5 melanoma) was less than 10 nM and the TGI (SK-MEL-5 melanoma) was 13.3 nM. It also gave a GI50 (T-47D breast) of 15.6 nM, a TGI (T-47D breast) of 144 nM and a GI50 (UACC-62 melanoma) of less than 10 nM. It also gave a TGI (UACC-62 melanoma) of less than 10 nM, a GI50 (COLO 205 colon) of less than 10 nM and a TGI (COLO 205 colon) of less than 10 nM. For the same compound, the GI50 (OVCAR-8 ovarian) was less than 10 nM, the TGI (OVCAR-8 ovarian) was 27.8 nM and the GI50 (MDA-MB-435 melanoma) was less than 10 nM. For the same compound, the TGI (MDA-MB-435 melanoma) was 15.7 nM, the GI50 (NCI-H522 lung) was less than 10 nM and the TGI (NCI-H522 lung) was less than 10 nM. It also gave a GI50 (NCI-H23 lung) of less than 10 nM, a TGI (NCI-H23 lung) of 14.4 nM and a GI50 (RPMI-8226 leukemia) of less than 10 nM. The TGI (RPMI-8226 leukemia) was less than 10 nM, the GI50 (SF-295 CNS) was less than 10 nM and the TGI (SF-295 CNS) was 67.5 nM. It also gave a GI50 (MDA-MB-468 breast) of less than 10 nM, a TGI (MDA-MB-468 breast) of less than 10 nM and a GI50 (MDA-MB-231 breast) of less than 10 nM. The TGI (MDA-MB-231 breast) was 115 nM, the GI50 (SK-MEL-28 melanoma) was less than 10 nM and the TGI (SK-MEL-28 melanoma) was less than 10 nM. It also gave a GI50 (HOP-62 NSCLC) of less than 10 nM, a TGI (HOP-62 NSCLC) of less than 10 nM and a GI50 (OVCAR-3 ovarian) of less than 10 nM. The TGI (OVCAR-3 ovarian) was 12.9 nM, the GI50 (SF-268 CNS) was less than 10 nM and the TGI (SF-268 CNS) was 16.2 nM. For the same compound, the GI50 (CCRF-CEM leukemia) was less than 10 nM, the TGI (CCRF-CEM leukemia) was less than 10 nM and the GI50 (M14 melanoma) was less than 10 nM. The TGI (M14 melanoma) was 13.7 nM, the GI50 (SR leukemia) was less than 10 nM and the TGI (SR leukemia) was less than 10 nM. It also gave a GI50 (HCT-15 colon) of less than 10 nM, a TGI (HCT-15 colon) of 64.6 nM and a GI50 (UO-31 renal) of 14 nM. For the same compound, the TGI (UO-31 renal) was 42 nM, the GI50 (IGROV1 ovarian) was less than 10 nM and the TGI (IGROV1 ovarian) was 127 nM. For the same compound, the GI50 (SK-OV-3 ovarian) was less than 10 nM, the TGI (SK-OV-3 ovarian) was 85.4 nM and the GI50 (HCC-2998 colon) was less than 10 nM. For the same compound, the TGI (HCC-2998 colon) was 15.8 nM, the GI50 (HT29 colon) was less than 10 nM and the TGI (HT29 colon) was 72.2 nM. It also gave a GI50 (A549 NSCLC) of less than 10 nM, a TGI (A549 NSCLC) of 116 nM and a GI50 (MOLT-4 leukemia) of less than 10 nM. It also gave a TGI (MOLT-4 leukemia) of less than 10 nM, a GI50 (SW-620 colon) of less than 10 nM and a TGI (SW-620 colon) of 22.9 nM. It also gave a GI50 (SN12C renal) of less than 10 nM, a TGI (SN12C renal) of 17.2 nM and a GI50 (RXF 393 renal) of less than 10 nM. For the same compound, the TGI (RXF 393 renal) was less than 10 nM, the GI50 (CAKI-1 renal) was less than 10 nM and the TGI (CAKI-1 renal) was 103 nM. It also gave a GI50 (MALME-3M melanoma) of 12.5 nM, a TGI (MALME-3M melanoma) of 26.3 nM and a GI50 (UACC-257 melanoma) of less than 10 nM. For the same compound, the TGI (UACC-257 melanoma) was 15.4 nM, the GI50 (KM12 colon) was less than 10 nM and the TGI (KM12 colon) was 10.8 nM. For the same compound, the GI50 (HL-60(TB) leukemia) was less than 10 nM, the TGI (HL-60(TB) leukemia) was less than 10 nM and the GI50 (OVCAR-5 ovarian) was less than 10 nM. The TGI (OVCAR-5 ovarian) was 1310 nM, the GI50 (NCI/ADR-RES ovarian) was 202 nM and the TGI (NCI/ADR-RES ovarian) was 1090 nM. It also gave a GI50 (SF-539 CNS) of less than 10 nM, a TGI (SF-539 CNS) of 20.4 nM and a GI50 ([…]-0 renal) of less than 10 nM. The TGI (786-0 renal) was 26.2 nM, the GI50 (PC-3 prostate) was less than 10 nM and the TGI (PC-3 prostate) was 44.4 nM. The GI50 (NCI-H226 lung) was less than 10 nM, the TGI (NCI-H226 lung) was 34.1 nM and the GI50 (LOX IMVI melanoma) was less than 10 nM. For the same compound, the TGI (LOX IMVI melanoma) was less than 10 nM, the GI50 (U251 glioblastoma) was less than 10 nM and the TGI (U251 glioblastoma) was 30.2 nM. It also gave a GI50 (NCI-H460 NSCLC) of less than 10 nM, a TGI (NCI-H460 NSCLC) of less than 10 nM and a GI50 (HOP-92 NSCLC) of less than 10 nM. It also gave a TGI (HOP-92 NSCLC) of 136 nM, a GI50 (NCI-H322M lung) of less than 10 nM and a TGI (NCI-H322M lung) of 41.3 nM.
